From patent publication US5622839A (ZymoGenetics, Inc., priority 1995, dated 1997)

Legend:
[1] = target: T1, human calcitonin receptor (Homo sapiens, UniProt P30988); assay: [Ca2+]i response of BHK cells expressing cloned calcitonin receptor to calcitonin and extracellular calcium (fura-2); format: cell-based; settings: for average peak [Ca2+]i response vs receptor number: each cell line expressing the calcitonin receptor
T1 construct: Hollex encoded a protein of 474 amino acids; expressed in transfected cells; host or cells: BHK 570 / BHK/KZ10-20-48 (baby hamster kidney) stably transfected with pHollex
T1 sequence (P30988 25-474): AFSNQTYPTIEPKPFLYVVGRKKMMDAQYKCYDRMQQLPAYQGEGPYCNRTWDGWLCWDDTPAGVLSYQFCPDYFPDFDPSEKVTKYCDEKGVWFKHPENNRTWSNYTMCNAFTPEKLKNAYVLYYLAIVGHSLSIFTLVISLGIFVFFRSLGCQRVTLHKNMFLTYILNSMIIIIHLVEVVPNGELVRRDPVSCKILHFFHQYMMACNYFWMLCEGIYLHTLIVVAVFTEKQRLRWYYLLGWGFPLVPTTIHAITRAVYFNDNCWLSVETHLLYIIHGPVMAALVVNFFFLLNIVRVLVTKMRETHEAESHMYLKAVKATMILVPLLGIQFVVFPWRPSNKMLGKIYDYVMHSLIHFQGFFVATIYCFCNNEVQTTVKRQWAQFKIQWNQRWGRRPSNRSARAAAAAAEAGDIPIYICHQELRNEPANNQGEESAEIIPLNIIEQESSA
Protocol: (§1) BHK cells expressing the cloned calcitonin receptor were assayed to determine their response to extracellular calcium. Cells were washed three times with a buffer (140 mM NaCl, 5 mM KCl, 0.5 mM MgCl2, 0.5 mM CaCl2 (concentration varied in some experiments), 10 mM glucose, 10 mM HEPES, pH 7.4) made using high purity salts (Aldrich, Milwaukee, Wis.) and sterile water (Baxter, McGaw Park, Ill.). Cells were loaded with fura-2 AM (Molecular Probes Inc.) (10 μg/ml) for 30 minutes essentially as described above, then washed an additional three times. Slides were mounted at room temperature on an inverted microscope (EPIPHOT, Nikon), and a field of cells (typically 20-30 cells) was located using a 40× Nikon fluor objective. The ratio of fura-2 emission at excitation wavelengths of 340 and 380 nm was recorded every 5 seconds. Individual cells were analyzed on a computer workstation (Sun Microsystems) using a software system designed for ratio imaging (Inovision). The concentration of calcium chloride in buffers was determined by comparison to calcium standards on a calcium analyzer (Nova Biomedical Corp. Waltham, Mass.). All experiments were reproduced three to eight times. Fura-2 ratio 340 nm to 380 nm values (R) were converted to [Ca^2+ ]i concentrations after calibration of the instrument using the formula: calcium (nm)=2240[R-0.3)/(20-R)]. Basal [Ca^2+ ]i concentrations were typically 80-150 nm. The peak fura-2 ratios 340/380 of individual cells exposed to 20 nm salmon calcitonin followed by 25 mM calcium chloride were averaged for some experiments and converted to [Ca^2+ ]i concentrations. Standard error was calculated at a 99% level using a Z score of 2.58 (n>30).

Control BHK cell lines = assay: [Ca2+]i response of control (calcitonin receptor-negative) BHK cells to extracellular calcium; format: cell-based, baby hamster
Protocol: as §1, with “Fura-2 ratio 340 nm to 380 nm values (R) were converted to [Ca^2+ ]i concentrations after calibration of the instrument using the formula: calcium (nm)=2240[R-0.3)/(20-R)]. Basal [Ca^2+ ]i concentrations were typically 80-150 nm. The peak fura-2 ratios 340/380 of individual cells exposed to 20 nm salmon calcitonin followed by 25 mM calcium chloride were averaged for some experiments and converted to [Ca^2+ ]i concentrations.” left out

BHK/Zem228R = assay: Binding/competition assay with BHK/Zem228R cells (negative control); design: species or system baby hamster
Protocol: A pool of transfectants expressing the plaex 1 was tested for receptor-mediated binding to calcitonin using a competition assay. Hollex1 was used as a positive control and BHK cells transfected with Zem228R were used as a negative control.
The cells were plated at a density of 1×10^5 cells/well in a 24-well cell culture dish and allowed to grow for 48 hours at 37° C. and 5% CO2 in growth medium (described in previous examples). The cells were rinsed in binding medium as described in Example IIE. Three hundred microliters of hot binding medium containing 10 nM hCT and 5 μCi/ml ^125 I hCT. Cold competition was achieved by adding unlabelled hCT to a final concentration of 1 μM were added to appropriate wells. The cells were incubated 1.5 hours at room temperature. Unincorporated radioactivity was removed by three washes with PBS. Five hundred microliters of 1N NaOH was added to each well to solublize the cells. Each sample was counted on a gamma counter.

[2] = target: T1, human calcitonin receptor; assay: Intracellular calcium response of Hollex1/Hollex2 cells (fura-2 imaging); format: cell-based
bone resorption = settings: patients given long term treatment; Azria 1989; cited from earlier work
[3] = 25 mM extracellular calcium chloride, about 700,000 receptors/cell
[4] = cell lines expressing 100,000 and 150,000 receptors/cell

Molecule: [Ca+2].[Cl-].[Cl-] [calcium chloride]
- magnitude of [Ca2+]i response relative to that induced by calcitonin [1, 3]: comparable to that induced by calcitonin
- time for response to return to an elevated basal level [1, 3]: about 20 minutes
- effect of calcitonin pretreatment on magnitude of response to extracellular calcium ([1]; 25 mM, about 700,000 receptors/cell, p<0.01): not significantly altered
- concentration of maximum response ([1]; 700,000 receptors/cell): approximately 14 mM
- EC50 ([1]; 700,000 receptors/cell, double reciprocal plot, read-out: effective concentration for half-maximal response): 8 to 10 mM
- smallest increase in extracellular calcium giving a significant response ([1]; 700,000 receptors/cell, increase over basal (1.3 mM)): 2 mM
- [Ca2+]i response to millimolar increases in extracellular calcium ([1]; BHK cells expressing recombinant calcitonin receptor): rapid and sustained elevation in [Ca^2+ ]i
- [Ca2+]i response to 25 mM extracellular calcium for two minutes followed by continuous wash ([1]; about 700,000 receptors/cell): rapid and transient increase in [Ca^2+ ]i
- [Ca2+]i response to 25 mM extracellular calcium chloride ([1]; about 700,000 receptors/cell, with or without calcitonin pretreatment): rapid and sustained increase in [Ca2+ ]i
- [Ca2+]i response [1, 4]: increases in [Ca^2+ ]i
- average peak [Ca2+]i response vs receptor number [1]: proportional to the average number of receptors per cell
- response to extracellular calcium (Control BHK cell lines; Control BHK cell lines): no response
- sensitivity to changes in extracellular calcium (Control BHK cell lines; three calcitonin receptor-negative BHK cell lines): no sensitivity

Molecule: human calcitonin: human calcitonin (hCT), natural peptide hormone ligand of the calcitonin receptor
- hot (BHK/Zem228R; 10 nM hCT and 5 μCi/ml 125I hCT): 147 cpm
- hot/cold (BHK/Zem228R; plus unlabelled hCT 1 μM): 105 cpm

Molecule: [Cl-].[K+] [KCl]
- [Ca2+]i response to 73 mM KCl ([1]; instead of CaCl2, about 700,000 receptors/cell): no effect

Molecule: calcitonin
- cells with a calcium response ([2]; Hollex1 cells): 30-70%
- cells with a calcium response ([2]; Hollex2 cells): 1-5%
- [Ca2+]i response [1, 4]: increases in [Ca^2+ ]i
- effect of calcitonin pretreatment on response to extracellular calcium [1, 4]: marked potentiation
- average peak [Ca2+]i response vs receptor number [1]: proportional to the average number of receptors per cell
- resistance cases not accompanied with antibody formation (bone resorption): approximately 50%
